Laboratory results taken from US11807780B2, “Aqueous coatings containing biosurfactants as bio-adjuvants and methods for using same” (RHODIA OPERATIONS, priority 2018, dated 2023).
Where “and” joins values, the source holds several entries; their conditions need not be identical. Equal values may be shown once. Read-outs that look alike come from different tables or passages of the source.

System: Pseudomonas aeruginosa ATCC 9027
Assay: MIC determination by two fold dilutions in 96 well microtiter plates, biocide with and without bio-surfactant
Assay type: cell-based
Details: for MIC: Pseudomonas aeruginosa; for microbial growth (absorbance at 660 nm): Table 3 / FIG. 5, triplicate wells
Method: In microbiology, minimum inhibitory concentration (MIC) is defined as the lowest concentration of an antimicrobial that will inhibit the growth of an microorganism after overnight or long incubation. Minimum inhibitory concentrations are important in diagnostic laboratories to confirm resistance of microorganisms to an antimicrobial agent and also to monitor the activity of new antimicrobial agents. A lower MIC is an indication of a better antimicrobial agent, as less is generally needed for acceptable performance. An MIC determination is generally regarded as a basic or standard laboratory measurement of the activity of an antimicrobial agent against an organism.
Biocides tested: • Methylchloroisothiazolinone/Methylisothiazolinone (CMIT/MIT) [also known as KATHON]: • Benzisothiazolinone [BIT] • Methylisothiazolinone [MIT]
Microorganism Used: Pseudomonas aeruginosa ATCC 9027
Biosurfactants tested: • 1. R95D90 (SigmaAldrich) 95% pure rhamnolipid with 90% Di-rhamnolipid dominant • 2. R95M90 (SigmaAldrich) 95% pure rhamnolipid with 90% Mono-rhamnolipid dominant • 3. Natural Saponin
MIC test is a method for determining the Minimum Inhibitory Concentration of a compound required to inhibit or kill the test organisms. MIC50 test is a method for determining the Minimum Inhibitory Concentration of a compound required to inhibit or kill the 50% of the test organisms.
1. The method was based on the MIC (Minimum Inhibitory Concentration) determination by standard two fold dilutions prepared in an appropriate medium and tested in 96 well microtiter plates.
2. A 4× concentration of the active from bio-surfactant stock solution [400 ppm] was prepared to dispense into […].
3. The plates were divided into four sections. Unless otherwise stated, Columns 1-3 received a combination of the bio-surfactant and biocide, Columns 4-6 received biocide alone, and Columns 7-9 received the bio-surfactant alone. Column 10 was left empty, Column 11 was blank medium and Column 12 was medium plus the suspension of the organism.
5. One microtiter plate per test organism and per biocide was used. The dilution scheme is attached as a separate PDF file “Dilution Scheme”.
6. 100 μL of sterile water was aliquoted into to columns 4-6, 11 and 12 with the aid of a 12-channel pipettor add 50 μL in Columns 1-3 and 7-9.
7. Dispensed 50 μL of the 8× stock solution of an appropriate biocide (MIT, BIT or Kathon) in Row A Columns 1-3
8. After mixing with the aid of the multichannel pipettor, 50 μL from the row A wells were transferred to 2nd row [B] wells and after mixing, 50 μL transferred to row C and, the operations were repeated down to row […] and 50 μL from H row (the last row) were discarded.
9. Make 4× stock solution [400 ppm] of each of the bio-surfactants. Dispensed 50 μL of bio-surfactant in 4 different 96 well plates in Columns 7-9 in each of the respective plates.
10. In wells 4-6, 100 μL of individual biocides at 4× concentration were added to the top row A, then serially diluted down to row H while discarding the final 100 μL from row H.
11. Columns 1-3 and 7-9 received 50 μL of 4× bio-surfactant.
12. In a separate tube, prepared bacterial inoculums from 24 hr grown cultures by suspending the cells in 2× Tryptic Soy Broth medium for bacteria.
13. The bacterial inocula were adjusted to 5-6 logs cfu/ml by measuring the turbidity.
14. With an aid of the multichannel pipettor, aliquots of 100 μL organisms were dispensed into each well except for Column 11 in which blank medium was added.
15. Incubated the plates at 35 Celsius degrees for 24 hours for bacterial growth
16. Made visual recordings of positive or negative growth in wells. Measured the absorbance at 660 nm and assessed viability via addition of resazurin dye. Note: for bacterial growth, 10 μL of dye Resazurin stock [250 mg/50 mL] was added to determine the positive and negative growths as determined by color change from blue to pink. […]

SMILES: O=c1[nH]sc2ccccc12 [BIT, 1,2-benzisothiazolin-3-one]
- MIC (ATCC9027, biocide alone, Di-Rhamnolipid 95% series, read-out: MIC w/o BS): 25 µg/mL
- MIC (ATCC9027, biocide alone, Mono + Di Rhamnolipid 95% series, read-out: MIC w/o BS): 25 µg/mL
- MIC (ATCC9027, biocide alone, Mono-Rhamnolipid 95% series, read-out: MIC w/o BS): 25 µg/mL
- MIC (ATCC9027, biocide alone, Natural Saponin series, read-out: MIC w/o BS): 25 µg/mL
- MIC (ATCC9027, with Di-Rhamnolipid 95% (50 ppm), read-out: MIC with BS): 12.5 µg/mL
- MIC (ATCC9027, with Mono + Di Rhamnolipid 95% (50 ppm), read-out: MIC with BS): 12.5 µg/mL
- MIC (ATCC9027, with Mono-Rhamnolipid 95% (50 ppm), read-out: MIC with BS): 12.5 µg/mL
- MIC (ATCC9027, with Natural Saponin (Purchased), 50 ppm active, read-out: MIC with BS): > 200 µg/mL
- microbial growth (absorbance at 660 nm) (PPM 1.56): 0.046 and 0.048 and 0.047
- microbial growth (absorbance at 660 nm) (PPM 3.13): 0.046 and 0.047 and 0.048
- microbial growth (absorbance at 660 nm) (PPM 6.25): 0.047 and 0.048
- microbial growth (absorbance at 660 nm) (PPM 50): 1.278 and 1.284 and 1.285
- microbial growth (absorbance at 660 nm) (PPM 100): 1.339 and 1.313 and 1.302
- microbial growth (absorbance at 660 nm) (PPM 200): 1.371 and 1.379

SMILES: Cn1sccc1=O [MIT, 2-methyl-4-isothiazolin-3-one]
- MIC (ATCC9027, read-out: MIC w/o BS, biocide alone, Di-Rhamnolipid 95% series): 12.5 µg/mL
- MIC (ATCC9027, read-out: MIC w/o BS, biocide alone, Mono + Di Rhamnolipid 95% series): 12.5 µg/mL
- MIC (ATCC9027, read-out: MIC w/o BS, biocide alone, Mono-Rhamnolipid 95% series): 12.5 µg/mL
- MIC (ATCC9027, read-out: MIC w/o BS, biocide alone, Natural Saponin series): 12.5 µg/mL
- MIC (ATCC9027, read-out: MIC with BS, with Di-Rhamnolipid 95% (50 ppm)): 12.5 µg/mL
- MIC (ATCC9027, read-out: MIC with BS, with Mono + Di Rhamnolipid 95% (50 ppm)): 6.5 µg/mL
- MIC (ATCC9027, read-out: MIC with BS, with Mono-Rhamnolipid 95% (50 ppm)): 6.5 µg/mL
- MIC (ATCC9027, read-out: MIC with BS, with Natural Saponin (Purchased), 50 ppm active): > 100 µg/mL
